The source of these data is US8420817B2, “Tricyclic N-heteroaryl-carboxamide derivatives, preparation and therapeutic use thereof” (Sanofi, priority 2007, dated 2013).

Structures are written as SMILES.

A word on the melting point: it is the temperature, or range, at which the solid turns liquid. In general, inhibition refers to the percentage by which the read-out fell short of the control. Read a high inhibition as a response far below the control.

For the first data set, the target named is T1, TRPV1 receptors (Mus musculus, UniProt Q704Y3).
T1 construct: from tissue; host or cells: living mice, hind paw (in vivo behavioural test)
T1 sequence (Q704Y3 whole entry): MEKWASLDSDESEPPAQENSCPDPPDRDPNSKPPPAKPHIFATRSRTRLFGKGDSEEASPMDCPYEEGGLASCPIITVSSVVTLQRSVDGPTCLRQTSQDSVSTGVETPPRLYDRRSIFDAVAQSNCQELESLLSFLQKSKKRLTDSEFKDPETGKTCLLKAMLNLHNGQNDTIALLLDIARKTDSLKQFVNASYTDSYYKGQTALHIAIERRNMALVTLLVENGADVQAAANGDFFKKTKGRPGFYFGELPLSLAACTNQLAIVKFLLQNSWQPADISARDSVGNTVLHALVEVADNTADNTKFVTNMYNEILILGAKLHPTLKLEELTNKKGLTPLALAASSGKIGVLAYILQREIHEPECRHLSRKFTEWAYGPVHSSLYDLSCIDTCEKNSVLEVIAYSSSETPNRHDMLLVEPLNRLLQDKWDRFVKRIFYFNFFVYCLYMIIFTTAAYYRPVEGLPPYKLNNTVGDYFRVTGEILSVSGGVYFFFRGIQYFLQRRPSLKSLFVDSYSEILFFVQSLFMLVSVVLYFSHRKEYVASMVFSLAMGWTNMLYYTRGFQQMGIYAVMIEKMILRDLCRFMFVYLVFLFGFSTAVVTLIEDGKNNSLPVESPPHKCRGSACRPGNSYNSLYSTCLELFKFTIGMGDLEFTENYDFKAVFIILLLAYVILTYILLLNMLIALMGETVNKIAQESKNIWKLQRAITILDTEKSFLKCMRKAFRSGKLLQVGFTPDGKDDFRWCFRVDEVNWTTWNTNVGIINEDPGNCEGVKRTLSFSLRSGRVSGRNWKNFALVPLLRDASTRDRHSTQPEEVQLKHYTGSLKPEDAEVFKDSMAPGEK
The data set can be described thus: Pain induced by intraplantar administration of capsaicin in mice. The note with it: 30 mg/kg orally 120 minutes before intraplantar capsaicin, n=10. Format: in vivo. Here is the method: Pain Induced by Intraplantar Administration of Capsaicin in Mice
The intraplantar injection of capsaicin in mice rapidly produces a short-duration nociceptif behavior which is manifested in instances of licking, chewing and flexing of the treated paw. These nociceptive responses are probably linked to activation of the local TRPV1 receptors by the capsaicin.
(E)-capsaicin is initially diluted at 3 mg/ml in DMSO, then diluted again, for its final use, at 1.5 μg/20 μl in physiological saline. Administration of solvent has no effect at all on the behavior of the mouse. The capsaicin is injected into one of the hind paws of the animal, at the level of the upper face.
The compounds to be tested are administered orally 120 minutes prior to injection of capsaicin. […] The nociceptif behavior of the animals is then immediately evaluated by the person carrying out the experiment, and the duration of the behavioral manifestations induced by the capsaicin is recorded with a stop watch for a time of 2 minutes (licking and chewing, total or partial flexing of the injected paw).
For each compound an inhibition is determined which corresponds to the mean of the nociceptive responses induced by the capsaicin in response to a dose of test product (expressed in mg/kg) administered orally, on a sample of a specific number of mice (n).
Take `O=C(Nc1cnc2c(c1)nc1n2CCC1O)c1cc2cc(C(F)(F)F)ccc2n1Cc1cccc(F)c1` (racemic) [Compound 29, N-(6-Hydroxy-7,8-dihydro-6H-pyrrolo[2′,1′:2,3]imidazo[4,5-b]pyridin-3-yl)-5-trifluoromethyl-1-(3-fluorobenzyl)-1H-indole-2-carboxamide]: the “% inhibition of nociceptive responses induced by capsaicin” value was 63% (+/−11%).

Test system in another data set: not given
Assay: not given
Details: not given
In turn, `O=C(Nc1cnc2c(c1)nc1n2CCC1O)c1cc2cc(C(F)(F)F)ccc2n1Cc1cccc(F)c1` (racemic) [Compound 29, N-(6-Hydroxy-7,8-dihydro-6H-pyrrolo[2′,1′:2,3]imidazo[4,5-b]pyridin-3-yl)-5-trifluoromethyl-1-(3-fluorobenzyl)-1H-indole-2-carboxamide] returned a melting point of 254 to 255 °C.
Take `CN(C)C1CCn2c1nc1cc(NC(=O)c3cc4cc(C(F)(F)F)ccc4n3Cc3cccc(F)c3)cnc12` (single isomer, unassigned; (-)) [Compound 33, (−)-N-(6-Dimethylamino-7,8-dihydro-6H-pyrrolo[2′,1′:2,3]imidazo[4,5-b]pyridin-3-yl)-5-trifluoromethyl-1-(3-fluorobenzyl)-1H-indole-2-carboxamide]: the melting point lay within 203 to 205 °C.
Same read-out and setting: with `O=C(Nc1cnc2c(c1)nc1n2CCC1O)c1cc2cc(C(F)(F)F)cnc2n1Cc1cccc(F)c1` (single isomer, unassigned; (-)) [Compound 36, (−)-N-(6-Hydroxy-7,8-dihydro-6H-pyrrolo[2′,1′:2,3]imidazo[4,5-b]pyridin-3-yl)-5-trifluoromethyl-1-(3-fluorobenzyl)-1H-pyrrolo[2,3-b]pyridine-2-carboxamide] the figure was 279 to 280 °C; with `O=C(Nc1cnc2c(c1)nc1n2CCC1)c1cc2cc(F)ccc2n1Cc1cccc(F)c1` [Compound 1, N-(7,8-Dihydro-6H-pyrrolo[2′,1′:2,3]imidazo[4,5-b]pyridin-3-yl)-5-fluoro-1-(3-fluorobenzyl)-1H-indole-2-carboxamide], 227 to 229 °C.
Still for that read-out and setting: under `O=C(Nc1cnc2c(c1)nc1n2CCC1)c1cc2ccc(C(F)(F)F)cc2n1Cc1cccc(F)c1` [Compound 7, N-(7,8-Dihydro-6H-pyrrolo[2′,1′:2,3]imidazo[4,5-b]pyridin-3-yl)-6-trifluoromethyl-1-(3-fluorobenzyl)-1H-indole-2-carboxamide] stands 261 to 262 °C.
`O=C(Nc1cnc2c(c1)nc1n2CCC1)c1cc2cc(C(F)(F)F)ccc2n1Cc1cccc(F)c1` [Compound 8, N-(7,8-Dihydro-6H-pyrrolo[2′,1′:2,3]imidazo[4,5-b]pyridin-3-yl)-5-trifluoromethyl-1-(3-fluorobenzyl)-1H-indole-2-carboxamide] gave a melting point of 223 to 225 °C.
On to `CC(C)c1ccc2cc(C(=O)Nc3cnc4c(c3)nc3n4CCC3)n(Cc3cccc(F)c3)c2c1` [Compound 17, N-(7,8-Dihydro-6H-pyrrolo[2′,1′:2,3]imidazo[4,5-b]pyridin-3-yl)-6-isopropyl-1-(3-fluorobenzyl)-1H-indole-2-carboxamide], for which the melting point was 275 to 278 °C.
Turning to `CC(C)(C)c1ccc2c(c1)cc(C(=O)Nc1cnc3c(c1)nc1n3CCC1)n2Cc1cccc(F)c1` [Compound 18, N-(7,8-Dihydro-6H-pyrrolo[2′,1′:2,3]imidazo[4,5-b]pyridin-3-yl)-5-tertbutyl-1-(3-fluorobenzyl)-1H-indole-2-carboxamide], the melting point lay within 234 to 236 °C.
For the compound `CC(C)(C)c1ccc2cc(C(=O)Nc3cnc4c(c3)nc3n4CCC3)n(Cc3cccc(F)c3)c2c1` [Compound 19, N-(7,8-Dihydro-6H-pyrrolo[2′,1′:2,3]imidazo[4,5-b]pyridin-3-yl)-6-tertbutyl-1-(3-fluorobenzyl)-1H-indole-2-carboxamide], the melting point was 244 to 245 °C.
With `CS(=O)(=O)c1ccc2c(c1)cc(C(=O)Nc1cnc3c(c1)nc1n3CCC1)n2Cc1cccc(F)c1` [Compound 21, N-(7,8-Dihydro-6H-pyrrolo[2′,1′:2,3]imidazo[4,5-b]pyridin-3-yl)-5-methylsulfonyl-1-(3-fluorobenzyl)-1H-indole-2-carboxamide], the melting point was in the range of 275 to 277 °C.
On to `CSc1ccc2cc(C(=O)Nc3cnc4c(c3)nc3n4CCC3)n(Cc3cccc(F)c3)c2c1` [Compound 22, N-(7,8-Dihydro-6H-pyrrolo[2′,1′:2,3]imidazo[4,5-b]pyridin-3-yl)-6-methylthio-1-(3-fluorobenzyl)-1H-indole-2-carboxamide], for which the melting point was 222 to 223 °C.
With `O=C(Nc1cnc2c(c1)nc1n2CCC1)c1cc2ccc(C(F)(F)F)nc2n1Cc1cccc(F)c1` [Compound 23, N-(7,8-Dihydro-6H-pyrrolo[2′,1′:2,3]imidazo[4,5-b]pyridin-3-yl)-6-trifluoromethyl-1-(3-fluorobenzyl)-1H-pyrrolo[2,3-b]pyridine-2-carboxamide], the melting point was in the range of 272 to 273 °C.
For `O=C(Nc1cnc2c(c1)nc1n2CCC1)c1cc2cc(C(F)(F)F)cnc2n1Cc1cccc(F)c1` [Compound 24, N-(7,8-Dihydro-6H-pyrrolo[2′,1′:2,3]imidazo[4,5-b]pyridin-3-yl)-5-trifluoromethyl-1-(3-fluorobenzyl)-1H-pyrrolo[2,3-b]pyridine-2-carboxamide], the melting point was in the range of 247 to 249 °C.
Still for that read-out and setting: with `O=C(Nc1cnc2c(c1)nc1n2CCC1O)c1cc2cc(C(F)(F)F)ccc2n1Cc1cccc(F)c1` (stereo not drawn) [Compound 26, N-(6-Hydroxy-7,8-dihydro-6H-pyrrolo[2′,1′:2,3]imidazo[4,5-b]pyridin-3-yl)-5-trifluoromethyl-1-(3-fluorobenzyl)-1H-indole-2-carboxamide] the figure was 267 to 268 °C.
As to `O=C(Nc1cnc2c(c1)nc1n2CCCC1)c1cc2cc(C(F)(F)F)ccc2n1Cc1cccc(F)c1` [Compound 27, N-(6,7,8,9-Tetrahydroimidazo[1,2-a:5,4-b′]dipyridin-3-yl)-5-trifluoromethyl-1-(3-fluorobenzyl)-1H-indole-2-carboxamide], the melting point is 262 to 263 °C.
`CC1(C)CCn2c1nc1cc(NC(=O)c3cc4cc(C(F)(F)F)ccc4n3Cc3cccc(F)c3)cnc12` [Compound 31, N-(6,6-Dimethyl-7,8-dihydro-6H-pyrrolo[2′,1′:2,3]imidazo[4,5-b]pyridin-3-yl)-5-trifluoromethyl-1-(3-fluorobenzyl)-1H-indole-2-carboxamide] gave a melting point of 212 to 213 °C.

For the next data set, the target named is T2, TRPV1 receptor (Rattus norvegicus, UniProt O35433).
T2 construct: The neurons of the DRG naturally express the TRPV1 receptor; endogenous in cells; host or cells: primary culture of newborn rat dorsal root ganglion neurons
T2 sequence (O35433 whole entry): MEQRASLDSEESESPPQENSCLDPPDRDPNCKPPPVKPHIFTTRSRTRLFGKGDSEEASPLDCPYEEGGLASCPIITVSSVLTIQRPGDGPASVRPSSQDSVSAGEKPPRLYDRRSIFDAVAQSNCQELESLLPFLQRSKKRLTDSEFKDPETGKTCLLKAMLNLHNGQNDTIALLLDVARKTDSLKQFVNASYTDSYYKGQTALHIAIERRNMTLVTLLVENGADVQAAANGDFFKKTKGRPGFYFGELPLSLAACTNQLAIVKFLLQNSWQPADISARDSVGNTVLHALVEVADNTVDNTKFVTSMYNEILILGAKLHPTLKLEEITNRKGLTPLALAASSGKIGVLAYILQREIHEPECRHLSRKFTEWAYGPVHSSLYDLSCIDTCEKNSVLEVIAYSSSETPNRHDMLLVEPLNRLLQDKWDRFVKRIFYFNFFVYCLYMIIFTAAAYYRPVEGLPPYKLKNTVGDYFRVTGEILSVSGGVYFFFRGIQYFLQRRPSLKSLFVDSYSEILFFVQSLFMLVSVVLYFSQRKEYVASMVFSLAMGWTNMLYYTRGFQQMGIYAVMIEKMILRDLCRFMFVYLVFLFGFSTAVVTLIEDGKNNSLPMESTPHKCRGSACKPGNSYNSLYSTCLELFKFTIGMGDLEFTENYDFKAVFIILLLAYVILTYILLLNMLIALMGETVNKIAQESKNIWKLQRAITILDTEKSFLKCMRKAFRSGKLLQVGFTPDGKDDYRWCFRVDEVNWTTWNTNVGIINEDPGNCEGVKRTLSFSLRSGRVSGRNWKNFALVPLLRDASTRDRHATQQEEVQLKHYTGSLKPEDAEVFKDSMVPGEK
Kind of data set: Inhibition of the current induced by capsaicin on rat DRGs (whole-cell patch-clamp). Format: cell-based. The note with it: DRG neuron; compound at 10 nM; inhibition of the control capsaicin response; rat DRG neurons. Here is the method:
Test for Inhibition of the Current Induced by Capsaicin on Rat DRGs
• Primary culture of rat dorsal root ganglion (DRG) cells:
The neurons of the DRG naturally express the TRPV1 receptor.
Newborn rat DRG primary cultures are prepared from 1-day-old rat pups. Briefly, after dissection, the ganglia are trypsinized and the cells are mechanically dissociated by controlled trituration. The cells are resuspended in an Eagle's basal culture medium containing 10% of fetal calf serum, 25 mM KCl, 2 mM glutamine, 100 μg/ml gentamicin and 50 ng/ml of NGF, and then deposited onto laminin-coated glass cover slips (0.25×10^6 cells per cover slip) which are then placed in 12-well Corning dishes. The cells are incubated at 37° C. in a humidified atmosphere containing 5% CO2 and 95% air. […]
The measuring chambers (volume 800 μl) containing the cell preparation are placed on the platform of an inverted microscope (Olympus IMT2) equipped with Hoffman optics (Modulation Contrast, New York), and observed at the magnification of 400×. […] The overall currents (membrane potential fixed at −60 mV) are recorded with an Axopatch 1D amplifier (Axon Instruments, Foster City, Calif.), connected to a PC controlled by Pclamp8 software (Axon Instruments). The current traces are recorded on paper and simultaneously digitized (sampling frequency 15 to […]) and acquired on the hard drive of the PC. […]
On the technique in general: The patch-clamp technique gives a direct electrical read-out from membranes.
The compound `O=C(Nc1cnc2c(c1)nc1n2CCC1)c1cc2cc(F)ccc2n1Cc1cccc(F)c1` [Compound 1, N-(7,8-Dihydro-6H-pyrrolo[2′,1′:2,3]imidazo[4,5-b]pyridin-3-yl)-5-fluoro-1-(3-fluorobenzyl)-1H-indole-2-carboxamide] yielded an inhibition at 0.01 µM of 69%.
